Counter-ions that a name gives are not always drawn.
System: histamine induced paw oedema
Test: Histamine induced paw oedema
Type: in vivo, rat (male Sprague-Dawley)
Details: ip, intraperitoneally 15 minutes before the anaesthetics, paw swelling 20 minutes after histamine, rat
Protocol: Compounds of formula I may be used to treat all painful, hyperalgesic and/or inflammatory conditions in which C-fibres play a pathophysiological role by eliciting neurogenic pain or inflammation, i.e.: The rat histamine paw oedema test was performed essentially as described by Amann et al. (Europ. J. Pharmacol. 279, 227-231, 1995). In brief 250-300 g male Sprague-Dawley rats were anaesthetized with pentobarbital sodium, and placed on a 32 degree Celsius heated table. Ten minutes later histamine (50 micoliter, 3 mg/ml) was injected in the right hind paw and 20 minutes hereafter the paw swelling was determined by water plethysmography (Ugo Basile). Test compounds were administered intraperitoneally at 15 minutes before the anaesthetics.

## O=C(O)CCN1CCC(CN2c3ccccc3CCc3ccccc32)C1 (stereo not shown) [Example 1, 3-(3-(10,11-Dihydro-5H-dibenzo[b,f]azepin-5-ylmethyl)-pyrrolidin-1-yl)-propionic acid hydrochloride]
  inhibition at 1 mg/kg: 56%

Source: patent US6214816A, “Heterocyclic compounds” (Novo Nordisk A/S, priority 1998, dated 2001)
